A short description of assay [1]: Antagonist activity at cADPR binding protein in sea urchin egg homogenate assessed as inhibition of cADPR-induced Ca2+ release by Fluo-3 based fluorescence assay. Format: tissue-based, Strongylocentrotus purpuratus.
Assay [2] is described as follows: Agonist activity at cADPR binding protein in sea urchin egg homogenate assessed as increase in Ca2+ release by Fluo-3 based fluorescence assay. It is filed as tissue-based, Strongylocentrotus purpuratus.
For a further assay, the system named is U2OS. The assay is described as follows: Agonist activity at cADPR binding protein in human U2OS cells expressing GCaMP6M assessed as increase in Ca2+ release at 30 uM by confocal Ca2+ imaging analysis. The following applies: filed as agonist. It is filed as cell-based.
In assay [3] the test system is Strongylocentrotus purpuratus. In words: Agonist activity at cADPR binding protein in sea urchin egg homogenate assessed as increase in Ca2+ release at 100 uM by Fluo-3 based fluorescence assay relative to control. Format: tissue-based.

Activity calls are given as the source filed them. The calls are words filed in the database; no cut-off is given here.

For the compound `[N-]=[N+]=Nc1nc2c(N)[n+]3cnc2n1[C@@H]1O[C@H](COP(=O)(O)OP(=O)(O)OC[C@H]2O[C@@H]3[C@H](O)[C@@H]2O)[C@@H](O)[C@H]1O`, in assay [1], the IC50 (commonly the concentration that gives 50% inhibition) turned out to be 7 nM.
With `C#CCO[C@@H]1[C@H](O)[C@H]2COP(=O)(O)OP(=O)([O-])OC[C@H]3O[C@H]([C@H](O)[C@@H]3O)[n+]3cnc4c(ncn4[C@@H]1O2)c3N`, the concentration giving a half-maximal response (EC50) – broadly, the concentration at which the effect is half-maximal – in assay [2] came out at 8460 nM.
Regarding `Nc1c2ncn3c2nc[n+]1[C@@H]1O[C@H](COP(=O)([O-])OP(=O)(O)OC[C@H]2O[C@@H]3[C@H](O)[C@@H]2O)[C@@H](O)[C@H]1O`, in assay [2], the EC50 was 110 nM. The outcome in the assay with U2OS was Active.
Regarding `C#CCO[C@@H]1[C@H](O)[C@H]2COP(=O)(O)OP(=O)(O)OC[C@H]3O[C@H]([C@H](O)[C@@H]3O)[n+]3cnc4c(nc(N=[N+]=[N-])n4[C@@H]1O2)c3N`, the Activity in assay [3] is below 10%.

Values taken from ChEMBL document CHEMBL5150058, “Synthesis and biological evaluation of novel photo-clickable adenosine and cyclic ADP-ribose analogs: 8-N3-2'-O-propargyladenosine and 8-N3-2'-O-propargyl-cADPR” (Bioorg Med Chem, 2022).
